Measurements: patent US20260364088A1, “TASL MIMICKING MOLECULES AND APPLICATIONS THEREOF” (CEMM - FORSCHUNGSZENTRUM FÜR MOLEKULARE MEDIZIN GMBH, priority 2022, published 2026)
Like-named read-outs stand apart in the source and are kept apart here.

Legend:
THP1 dual cell = biological target: T1, THP1 dual cell (Homo sapiens, UniProt Q8N697); assay: THP1 DUAL/ISRE cell reporter assay (R848 stimulated); assay type: cell-based
T1 construct: R848 (TLR7/8)-stimulated ISRE reporter
Experimental: CAL-1, THP1 or human primary cells were incubated with dTASL1 and other identified compounds (or the corresponding volume of DMSO vehicle) for 24 h or 48 h at the indicated concentration and subsequently stimulated with R848 (5 μg/ml) for the indicated time. Supernatant or cells were recovered for ELISA, SDS-PAGE or microscopy-based analysis.
THP1 DUAL cells (1×10^5 cells per 96 well) were incubated with compounds for 24 h or 48 h, and subsequently stimulated for 20 h as indicated. Cell culture supernatant were collected, cleared of residual cells by centrifugation and analyzed for NF-κB and ISRE reporter activity according to the manufacturer's instructions. For experiments in 384-well format, compounds were pre-plated at defined concentrations and THP1 dual cells were added at 800 k/well concentration in […]. After incubation for 24 h or 48 h cells were stimulated with […] of a 25 μg/ml stock of R848 or 0.5 μg/ml Pam3CKS4 5× stocks as indicated for 20 h and detected by directly adding Quanti-Luc Plus (Invivogen) solution to the plates, according to the manufacturer's instructions and without adding stabilizer solution. Quanti-Blue detection was carried out according to the manifacturers instructions, with QB reagent and buffer (Invivogen) dissolved in 30 ml water, instead of the 100 ml used for standard detection.
Based on potency and kinetics, the compound C5 was selected for further characterization (FIG. 2E). C5 is an elongated molecule comprised of an aromatic 2-(4-ethoxyphenyl)-quinoline moiety followed by an amide bond and an aliphatic 2-methyl-1-propylpiperidine (FIG. 2F). To validate the scaffold and explore the chemical space at the aliphatic end of the compound, five analogues and an independently synthesized batch of C5 were obtained. […] Therefore the C5 compound was selected, which was named dTASL1 as its activity leads to TASL degradation, to assess effects on TLR7/8-induced signaling and responses.
The following compounds were assayed for their activity in the degradation assay (THP1 DUAL/ISRE cell reporter assay), as described herein: […]

TASL-SLC15A4 complex = TASL-SLC15A4 complex (Homo sapiens, UniProt Q8N697); assay: PM-associated TASL levels in cells coexpressing ΔN-SLC15A4 and TASL-GFP; assay type: cell-based; conditions: 10 µM, 24 h
TASL-SLC15A4 complex, sequence (Q8N697 whole entry, one chain of several): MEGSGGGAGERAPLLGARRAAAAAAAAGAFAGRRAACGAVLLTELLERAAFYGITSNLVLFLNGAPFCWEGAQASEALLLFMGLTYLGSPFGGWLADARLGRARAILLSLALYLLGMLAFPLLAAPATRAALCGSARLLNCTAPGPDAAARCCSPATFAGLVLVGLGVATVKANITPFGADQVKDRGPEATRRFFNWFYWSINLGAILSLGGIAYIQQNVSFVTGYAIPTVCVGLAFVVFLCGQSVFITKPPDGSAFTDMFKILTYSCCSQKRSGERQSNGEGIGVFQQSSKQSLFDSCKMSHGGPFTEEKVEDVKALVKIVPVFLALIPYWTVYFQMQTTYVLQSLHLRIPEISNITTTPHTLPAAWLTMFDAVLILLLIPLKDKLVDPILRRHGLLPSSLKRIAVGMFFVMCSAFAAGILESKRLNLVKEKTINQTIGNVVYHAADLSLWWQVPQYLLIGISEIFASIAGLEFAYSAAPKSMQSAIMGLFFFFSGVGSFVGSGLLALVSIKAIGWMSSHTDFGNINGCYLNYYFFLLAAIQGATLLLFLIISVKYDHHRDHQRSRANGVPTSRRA
Experimental: For live cell imaging cells were plated in PhenoPlate 96-well plates or Ibidi m-Slide 8 (Ibidi) wells at 16 k/well and incubated over-night. Then compounds were added, if indicated, and cells were imaged after 24 h of incubation. Cells were stained with LysoTracker Deep Red L12492 (ThermoFisher) and Hoechst 34580 (ThermoFisher). PhenoPlate images were acquired on an Opera Phenix Plus High-Content Screening System (PerkinElmer) and m-Slide images were acquired on a confocal laser scanning microscope (Zeiss LSM980, Carl Zeiss) equipped with an incubation chamber. Images were analyzed with Fiji-ImageJ.
Encouraged by the fact that the chemical entity of the present invention was showing the desired behavior and specificity profile, it became important to better clarify the molecular basis of this uncommon mechanism of action, i.e interference with a highly specific protein interaction leading to degradation of a single complex component. The effect of dTASL1 on complex assembly was first monitored. […] While total levels of SLC15A4-GFP were unaltered, localization appears to reflect some lysosomal rearrangement. […] To further rule out the residual possibility of an indirect effect, possibly related to TASL maturation or transport, dTASL1 competition assays with GFP-SLC15A4 associated with short N-terminal portions of TASL protein were performed. […]

IRF5 = IRF5 nuclear translocation in CD19^+ B cells of PBMCs (confocal microscopy); assay type: cell-based, human; conditions: primary B cells, dTASL1 10 µM 24 h, R848 (5 μg/ml) 3 h, n=7
Experimental: PBMCs were treated for 24 h with DMSO or dTASL1 (10 µM) and thereafter stimulated with 5 μg/ml R848 (Invivogen) for three hours or left unstimulated. Cells were harvested and stained for 30 minutes with PE-conjugated anti-CD19 antibodies (BioLegend, #302254, 1:200 in PBS/2% FBS) on ice and fixed with 4% formaldehyde in PBS for 15 minutes at RT. Permeabilization and staining for NF-κB p65 and IRF5 and counterstaining was performed as for CAL-1 and cells were seeded at a concentration of 3×10^4 cells/well onto 384-well imaging plates. Images were acquired on a PerkinElmer Opera Phenix HCS spinning disc confocal microscope and analyzed as described above with the additional identification of B cells based on CD19 membrane staining intensity. This protocol also applies to the cells obtained from SLE patients.
Given that all evidence obtained seems to confirm the mechanistic precision of this chemical agent, any further consideration of assessing the therapeutic potential required evidence for activity in human primary cells relevant for SLE pathophysiology. The effect of dTASL1 in human peripheral blood mononuclear cells (PBMCs) was assessed. […] It has been previously shown that the SLC15A4-TASL module was required for TNF production in primary human monocytes. […] The impact of dTASL1 on TLR7/8 responses by directly monitoring IRF5 by confocal microscopy in B cells was assessed.

T1 sequence (Q8N697 whole entry): as the sequence (Q8N697 whole entry, one chain of several) above

How did the IC50 (THP1 dual cell; 24 h treatment before R848 stimulation, read-out: IC50 24 h) turn out when `CCOc1ccc(-c2cc(C(=O)NCCCN3CCCCC3C)c3ccccc3n2)cc1` (stereo not shown) [dTASL1, 2-(4-ethoxyphenyl)-N-(3-(2-methylpiperidin-1-yl)propyl) quinoline-4-carboxamide] was run?
Its IC50 is 2230 nM.

What about the IC50 (THP1 dual cell; 48 h treatment before R848 stimulation, read-out: IC50 48 h) of the same compound?
Its IC50 is 933 nM.

What about the “PM-associated TASL levels” value (TASL-SLC15A4 complex) of the same compound?
Its value is “severely reduced PM-associated TASL levels”.

What about the IRF5 nuclear translocation (IRF5) of the same compound?
Its IRF5 nuclear translocation is “significantly reduced IRF5 nuclear translocation”.
